Values of other authors as cited in US20130281523A1, “LOW DOSE CANNABINOID MEDICAMENTS” (priority 2010, published 2013).

Test system: rat model of sleep apnea
Settings: 10 mg/kg intraperitoneal injection

CCCCCc1cc(O)c2c(c1)OC(C)(C)[C@@H]1CCC(C)=C[C@@H]21 [Dronabinol, Delta-9-tetrahydrocannabinol]
Breathing cessation during non-REM (NREM) sleep: reduced breathing cessation
